Laboratory results reported in US10131652B2, “Pyrimidinyloxy benzene derivatives as herbicides” (E. I. DU PONT DE NEMOURS AND COMPANY, priority 2014, dated 2018).

Columns and labels:
Assay type in all cases: in vivo
[1] = test system: Italian ryegrass (Lolium multiflorum); test: Test B pre-/postemergence plant response
Procedure, shortened: (§1)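 Visual injury scores on a 0–100 scale (100 = complete control) relative to untreated plants, taken about 10 days post-treatment in greenhouse. Treatments were a directed preemergence soil spray and a postemergence spray at one- to two-leaf stage, using surfactant-containing solvent formulation.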

[2] = test system: barnyardgrass (Echinochloa crus-galli); test: Test B pre-/postemergence plant response
Procedure, shortened: as §1

[3] = test system: corn (Zea mays); test: Test B pre-/postemergence plant response
Procedure, shortened: as §1

[4] = test system: giant foxtail (Setaria faberii); test: Test B pre-/postemergence plant response
Procedure, shortened: as §1

[5] = test system: kochia (Kochia scoparia); test: Test B pre-/postemergence plant response
Procedure, shortened: as §1

[6] = test system: pigweed (Amaranthus retroflexus); test: Test B pre-/postemergence plant response
Procedure, shortened: as §1

[7] = test system: ragweed (common ragweed, Ambrosia elatior); test: Test B pre-/postemergence plant response
Procedure, shortened: as §1

[8] = test system: wheat (Triticum aestivum); test: Test B pre-/postemergence plant response
Procedure, shortened: as §1

[9] = test system: blackgrass (Alopecurus myosuroides); test: Test B postemergence plant response
Procedure, shortened: (§2)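 Visual injury ratings, 0 = no effect to 100 = complete control, versus untreated controls approximately 10 days after postemergence spraying in greenhouse. Plants were at one- to two-leaf stage, 2 to 10 cm tall, in loam soil/sand blend; a dash denotes no result.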

[10] = test system: galium (catchweed bedstraw, Galium aparine); test: Test B postemergence plant response
Procedure, shortened: as §2

[11] = test system: barnyardgrass (Echinochloa crus-galli); test: Test C flooded paddy test plant response; settings: Flood, 250 g ai/ha; scale of 0 to 100 where 0 is no effect and 100 is complete control; 13 to 15 days
Procedure, shortened: (§3)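 Scale 0 (no effect) to 100 (complete control), assigned visually versus controls after 13–15 d greenhouse. Application: directly to paddy water, 3 cm flood depth kept constant, 2-leaf stage.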

[12] = test system: ducksalad (Heteranthera limosa); test: Test C flooded paddy test plant response; settings: Flood, 250 g ai/ha; scale of 0 to 100 where 0 is no effect and 100 is complete control; 13 to 15 days
Procedure, shortened: as §3

[13] = test system: rice (Oryza sativa); test: Test C flooded paddy test plant response; settings: Flood, 250 g ai/ha; scale of 0 to 100 where 0 is no effect and 100 is complete control; 13 to 15 days
Procedure, shortened: as §3

[14] = test system: small-flower umbrella sedge (Cyperus difformis); test: Test C flooded paddy test plant response; settings: Flood, 250 g ai/ha; scale of 0 to 100 where 0 is no effect and 100 is complete control; 13 to 15 days
Procedure, shortened: as §3

[15] = 31 g ai/ha, Preemergence, 0 to 100 scale where 0 is no effect and 100 is complete control
[16] = 125 g ai/ha, postemergence, 0 to 100 scale, 0 no effect, 100 complete control
[17] = Postemergence, 31 g ai/ha, 0 to 100 scale (0 no effect, 100 complete control)
[18] = Preemergence, 125 g ai/ha, 0 to 100 scale (0 no effect, 100 complete control)

Question: What does the source list for `Fc1cnc(Oc2ccccc2-c2cc(C(F)F)no2)nc1` [Compound 210]?
Answer: Plant response rating, Ryegrass, Italian [1, 15]: 0; Plant response rating, Ryegrass, Italian [1, 16]: 0; Plant response rating, Ryegrass, Italian [1, 17]: 0; Ryegrass, Italian plant response rating [1, 18]: 10; Plant response rating, Barnyardgrass [2, 15]: 10; Plant response rating, Barnyardgrass [2, 16]: 0; Plant response rating, Barnyardgrass [2, 17]: 0; Barnyardgrass plant response rating [2, 18]: 80; Plant response rating, Corn [3, 16]: 10; Plant response rating, Corn [3, 17]: 0; Plant response rating, Foxtail, Giant [4, 15]: 40; Plant response rating, Foxtail, Giant [4, 16]: 40; Plant response rating, Foxtail, Giant [4, 17]: 0; Foxtail, Giant plant response rating [4, 18]: 90; Plant response rating, Kochia [5, 15]: 50; Plant response rating, Kochia [5, 16]: 80; Plant response rating, Kochia [5, 17]: 50; Kochia plant response rating [5, 18]: 90; Plant response rating, Pigweed [6, 15]: 100; Plant response rating, Pigweed [6, 16]: 80; Plant response rating, Pigweed [6, 17]: 50; Pigweed plant response rating [6, 18]: 100; Plant response rating, Ragweed [7, 15]: 0; Plant response rating, Ragweed [7, 16]: 30; Plant response rating, Ragweed [7, 17]: 10; Ragweed plant response rating [7, 18]: 20; Plant response rating, Wheat [8, 16]: 20; Plant response rating, Wheat [8, 17]: 0; Plant response rating, Blackgrass [9, 16]: 30; Plant response rating, Blackgrass [9, 17]: 10; Plant response rating, Galium [10, 16]: 90; Plant response rating, Galium [10, 17]: 50; Barnyardgrass plant response rating [11]: 0; Ducksalad plant response rating [12]: 85; Rice plant response rating [13]: 0; Sedge, Umbrella plant response rating [14]: 40

Question: `Cc1cnc(Oc2ccccc2-c2cc(C(F)F)no2)nc1` [Compound 211] was tested. Which “Plant response rating, Ryegrass, Italian” value [1, 15] did it give?
Answer: Its value is 0.

Question: And the “Plant response rating, Ryegrass, Italian” value [1, 16]?
Answer: Its value is 0.

Question: What about the “Plant response rating, Ryegrass, Italian” value [1, 17] of the same compound?
Answer: Its value is 0.

Question: And the “Ryegrass, Italian plant response rating” value [1, 18]?
Answer: The value was 0.

Question: And the “Plant response rating, Barnyardgrass” value [2, 15]?
Answer: Its value is 10.

Question: And the “Plant response rating, Barnyardgrass” value [2, 16]?
Answer: The value was 10.

Question: What about the “Plant response rating, Barnyardgrass” value [2, 17] of the same compound?
Answer: Its value is 0.

Question: What about the “Barnyardgrass plant response rating” value [2, 18] of the same compound?
Answer: The value was 50.

Question: And the “Plant response rating, Corn” value [3, 16]?
Answer: Its value is 10.

Question: What about the “Plant response rating, Corn” value [3, 17] of the same compound?
Answer: The value was 0.

Question: What about the “Plant response rating, Foxtail, Giant” value [4, 15] of the same compound?
Answer: Its value is 10.

Question: What about the “Plant response rating, Foxtail, Giant” value [4, 16] of the same compound?
Answer: Its value is 50.

Question: What about the “Plant response rating, Foxtail, Giant” value [4, 17] of the same compound?
Answer: Its value is 10.

Question: And the “Foxtail, Giant plant response rating” value [4, 18]?
Answer: Its value is 100.

Question: What about the “Plant response rating, Kochia” value [5, 15] of the same compound?
Answer: The value was 20.

Question: And the “Plant response rating, Kochia” value [5, 16]?
Answer: The value was 90.

Question: And the “Plant response rating, Kochia” value [5, 17]?
Answer: Its value is 40.

Question: What about the “Kochia plant response rating” value [5, 18] of the same compound?
Answer: Its value is 80.

Question: And the “Plant response rating, Pigweed” value [6, 15]?
Answer: Its value is 100.

Question: What about the “Plant response rating, Pigweed” value [6, 16] of the same compound?
Answer: Its value is 50.

Question: What about the “Plant response rating, Pigweed” value [6, 17] of the same compound?
Answer: Its value is 20.

Question: And the “Pigweed plant response rating” value [6, 18]?
Answer: Its value is 100.

Question: And the “Plant response rating, Ragweed” value [7, 15]?
Answer: Its value is 0.

Question: And the “Plant response rating, Ragweed” value [7, 16]?
Answer: Its value is 30.

Question: What about the “Plant response rating, Ragweed” value [7, 17] of the same compound?
Answer: The value was 0.

Question: And the “Ragweed plant response rating” value [7, 18]?
Answer: The value was 30.

Question: And the “Plant response rating, Wheat” value [8, 16]?
Answer: The value was 0.

Question: What about the “Plant response rating, Wheat” value [8, 17] of the same compound?
Answer: The value was 0.

Question: What about the “Plant response rating, Blackgrass” value [9, 16] of the same compound?
Answer: The value was 50.

Question: What about the “Plant response rating, Blackgrass” value [9, 17] of the same compound?
Answer: The value was 10.

Question: What about the “Plant response rating, Galium” value [10, 16] of the same compound?
Answer: Its value is 100.

Question: And the “Plant response rating, Galium” value [10, 17]?
Answer: Its value is 60.

Question: What about the “Barnyardgrass plant response rating” value [11] of the same compound?
Answer: Its value is 0.

Question: And the “Ducksalad plant response rating” value [12]?
Answer: Its value is 70.

Question: And the “Rice plant response rating” value [13]?
Answer: Its value is 0.

Question: What about the “Sedge, Umbrella plant response rating” value [14] of the same compound?
Answer: Its value is 20.

Question: For `COc1cnc(Oc2ccccc2-c2cc(C(F)F)no2)nc1` [Compound 213], which “Plant response rating, Ryegrass, Italian” value [1, 15] is on record?
Answer: Its value is 0.

Question: What about the “Plant response rating, Ryegrass, Italian” value [1, 16] of the same compound?
Answer: The value was 0.

Question: And the “Plant response rating, Ryegrass, Italian” value [1, 17]?
Answer: The value was 0.

Question: What about the “Ryegrass, Italian plant response rating” value [1, 18] of the same compound?
Answer: Its value is 0.

Question: And the “Plant response rating, Barnyardgrass” value [2, 15]?
Answer: The value was 0.

Question: What about the “Plant response rating, Barnyardgrass” value [2, 16] of the same compound?
Answer: The value was 0.

Question: And the “Plant response rating, Barnyardgrass” value [2, 17]?
Answer: Its value is 0.

Question: And the “Barnyardgrass plant response rating” value [2, 18]?
Answer: The value was 40.

Question: What about the “Plant response rating, Corn” value [3, 16] of the same compound?
Answer: Its value is 10.

Question: And the “Plant response rating, Corn” value [3, 17]?
Answer: Its value is 0.

Question: And the “Plant response rating, Foxtail, Giant” value [4, 15]?
Answer: The value was 0.

Question: And the “Plant response rating, Foxtail, Giant” value [4, 16]?
Answer: The value was 20.

Question: What about the “Plant response rating, Foxtail, Giant” value [4, 17] of the same compound?
Answer: The value was 0.

Question: What about the “Foxtail, Giant plant response rating” value [4, 18] of the same compound?
Answer: The value was 80.

Question: What about the “Plant response rating, Kochia” value [5, 15] of the same compound?
Answer: The value was 10.

Question: And the “Plant response rating, Kochia” value [5, 16]?
Answer: Its value is 100.

Question: And the “Plant response rating, Kochia” value [5, 17]?
Answer: The value was 60.

Question: What about the “Kochia plant response rating” value [5, 18] of the same compound?
Answer: Its value is 50.

Question: And the “Plant response rating, Pigweed” value [6, 15]?
Answer: Its value is 80.

Question: What about the “Plant response rating, Pigweed” value [6, 16] of the same compound?
Answer: Its value is 80.

Question: What about the “Plant response rating, Pigweed” value [6, 17] of the same compound?
Answer: The value was 30.

Question: What about the “Pigweed plant response rating” value [6, 18] of the same compound?
Answer: The value was 100.

Question: And the “Plant response rating, Ragweed” value [7, 15]?
Answer: The value was 0.

Question: And the “Plant response rating, Ragweed” value [7, 16]?
Answer: Its value is 60.

Question: What about the “Plant response rating, Ragweed” value [7, 17] of the same compound?
Answer: The value was 10.

Question: What about the “Ragweed plant response rating” value [7, 18] of the same compound?
Answer: Its value is 0.

Question: What about the “Plant response rating, Wheat” value [8, 16] of the same compound?
Answer: The value was 10.

Question: And the “Plant response rating, Wheat” value [8, 17]?
Answer: The value was 0.

Question: And the “Plant response rating, Blackgrass” value [9, 16]?
Answer: Its value is 10.

Question: What about the “Plant response rating, Blackgrass” value [9, 17] of the same compound?
Answer: The value was 0.

Question: What about the “Plant response rating, Galium” value [10, 16] of the same compound?
Answer: The value was 80.

Question: And the “Plant response rating, Galium” value [10, 17]?
Answer: The value was 50.

Question: What about the “Barnyardgrass plant response rating” value [11] of the same compound?
Answer: Its value is 0.

Question: And the “Ducksalad plant response rating” value [12]?
Answer: The value was 75.

Question: And the “Rice plant response rating” value [13]?
Answer: The value was 0.

Question: What about the “Sedge, Umbrella plant response rating” value [14] of the same compound?
Answer: The value was 0.
